From patent US6987114B1, “Antiviral pyrimidinedione derivatives and process for the preparation thereof” (Samjin Pharmaceutical Co., Ltd, priority 1999, dated 2006)
Converted amounts (≈) assume the structure as drawn. Like-named read-outs stand apart in the source and are kept apart here.

Tests used:
HIV = experiment: microbe, parasite or virus in culture; format: cell-based
Outline: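 MT-4 cells (2.5×10^5 cells/ml) infected with 1000 CCID50 HIV, added at once to compound dilutions, incubated 4 or 5 days at 37° C. Protection from virus-induced cytopathic effect read by MTT; cytotoxicity from MTT viability of mock-infected cells in parallel.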

mock-infected MT-4 cells = experiment: Cytotoxicity based on viability of mock-infected host cells (MTT method); format: cell-based; settings: mock-infected MT-4 cells, MTT method, 4 or 5 days at 37° C.
Outline: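 Mock-infected MT-4 cells at 2.5×10^5 cells/ml were exposed to various concentrations of test compound, run in parallel with HIV-infected (1000 CCID50) cultures. After 4 or 5 days at 37° C., host-cell viability was read by MTT.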

[1] = Human immunodeficiency virus 1, MT4, read-out: ED50
[2] = Human immunodeficiency virus 1, MT4, HIV-infected MT-4 cells, MTT method, 4 or 5 days at 37° C., read-out: ED50 (the source's name)

Structure (SMILES) | melting point | EC50 (HIV; [2]) | EC50 (HIV; [1]) | CD50 (mock-infected MT-4 cells)
CCc1c(Sc2cc(C)cc(C)c2)n(Cc2cccnc2)c(=O)[nH]c1=O [Example 115, 1-(Pyridin-3-ylmethyl)-5-ethyl-6-(3,5-dimethylphenyl)thio-2,4-pyrimidinedione] | 202 to 205 °C | – | 0.014 µg/mL (≈ 0.0381 µM) | 16.63 µg/mL
Cc1cc(C)cc(Sc2c(C(C)C)c(=O)[nH]c(=O)n2Cc2cccnc2)c1 [Example 116, 1-(Pyridin-3-ylmethyl)-5-isopropyl-6-(3,5-dimethylphenyl)thio-2,4-pyrimidinedione] | 159 to 161 °C | – | 0.003 µg/mL (≈ 0.00786 µM) | 10.09 µg/mL
CCc1c(Oc2cc(C)cc(C)c2)n(Cc2cccnc2)c(=O)[nH]c1=O [Example 117, 1-(Pyridin-3-ylmethyl)-5-ethyl-6-(3,5-dimethylphenoxy)-2,4-pyrimidinedione] | 230 to 232 °C | – | 0.061 µg/mL (≈ 0.174 µM) | 40.20 µg/mL
Cc1cc(C)cc(Oc2c(C(C)C)c(=O)[nH]c(=O)n2Cc2cccnc2)c1 [Example 118, 1-(Pyridin-3-ylmethyl)-5-isopropyl-6-(3,5-dimethylphenoxy)-2,4-pyrimidinedione] | 190 to 193 °C | – | 0.015 µg/mL (≈ 0.041 µM) | 33.50 µg/mL
CCc1c(C(=O)c2cc(C)cc(C)c2)n(Cc2cccnc2)c(=O)[nH]c1=O [Example 119, 1-(Pyridin-3-ylmethyl)-5-ethyl-6-(3,5-dimethylbenzoyl)-2,4-pyrimidinedione] | 170 to 172 °C | – | 0.0038 µg/mL (≈ 0.0105 µM) | 39.00 µg/mL
Cc1cc(C)cc(C(=O)c2c(C(C)C)c(=O)[nH]c(=O)n2Cc2cccnc2)c1 [Example 120, 1-(Pyridin-3-ylmethyl)-5-isopropyl-6-(3,5-dimethylbenzoyl)-2,4-pyrimidinedione] | 178 to 180 °C | – | 0.002 µg/mL (≈ 0.0053 µM) | 8.80 µg/mL
CCc1c(Sc2cc(C)cc(C)c2)n(Cc2cccc(Cl)n2)c(=O)[nH]c1=O [Example 121, 1-(2-Chloropyridin-6-ylmethyl)-5-ethyl-6-(3,5-dimethyl-phenyl)thio-2,4-pyrimidinedione] | 145 to 148 °C | > 7.72 µg/mL | – | 7.72 µg/mL
Cc1cc(C)cc(Sc2c(C(C)C)c(=O)[nH]c(=O)n2Cc2cccc(Cl)n2)c1 [Example 122, 1-(2-Chloropyridin-6-ylmethyl)-5-isopropyl-6-(3,5-dimethylphenyl)thio-2,4-pyrimidinedione] | 159 to 161 °C | > 2.8 µg/mL | – | 2.80 µg/mL
CCc1c(Oc2cc(C)cc(C)c2)n(Cc2cccc(Cl)n2)c(=O)[nH]c1=O [Example 123, 1-(2-Chloropyridin-6-ylmethyl)-5-ethyl-6-(3,5-dimethylphenoxy)-2,4-pyrimidinedione] | 199 to 201 °C | 0.122 µg/mL (≈ 0.316 µM) | – | 79.14 µg/mL
Cc1cc(C)cc(Oc2c(C(C)C)c(=O)[nH]c(=O)n2Cc2cccc(Cl)n2)c1 [Example 124, 1-(2-Chloropyridin-6-ylmethyl)-5-isopropyl-6-(3,5-dimethylphenoxy)-2,4-pyrimidinedione] | 223 to 225 °C | 0.082 µg/mL (≈ 0.205 µM) | – | >100.00 µg/mL
CCc1c(C(=O)c2cc(C)cc(C)c2)n(Cc2cccc(Cl)n2)c(=O)[nH]c1=O [Example 125, 1-(2-Chloropyridin-6-ylmethyl)-5-ethyl-6-(3,5-dimethyl-benzoyl)-2,4-pyrimidinedione] | 196 to 198 °C | 0.015 µg/mL (≈ 0.0377 µM) | – | 9.02 µg/mL
Cc1cc(C)cc(C(=O)c2c(C(C)C)c(=O)[nH]c(=O)n2Cc2cccc(Cl)n2)c1 [Example 126, 1-(2-Chloropyridin-6-ylmethyl)-5-isopropyl-6-(3,5-dimethylbenzoyl)-2,4-pyrimidinedione] | 206 to 208 °C | 0.011 µg/mL (≈ 0.0267 µM) | – | 9.85 µg/mL
CCc1c(Oc2cc(C)cc(C)c2)n(Cc2cccc(Br)n2)c(=O)[nH]c1=O [Example 127, 1-(2-Bromopyridin-6-ylmethyl)-5-ethyl-6-(3,5-dimethylphenoxy)-2,4-pyrimidinedione] | 201 to 203 °C | 0.194 µg/mL (≈ 0.451 µM) | – | 9.46 µg/mL
Cc1cc(C)cc(Oc2c(C(C)C)c(=O)[nH]c(=O)n2Cc2cccc(Br)n2)c1 [Example 128, 1-(2-Bromopyridin-6-ylmethyl)-5-isopropyl-6-(3,5-dimethylphenoxy)-2,4-pyrimidinedione] | 228 to 230 °C | 0.079 µg/mL (≈ 0.178 µM) | – | 48.27 µg/mL
Cc1cc(C)cc(C(=O)c2c(C(C)C)c(=O)[nH]c(=O)n2Cc2cccc(Br)n2)c1 [Example 130, 1-(2-Bromopyridin-6-ylmethyl)-5-isopropyl-6-(3,5-dimethyl-benzoyl)-2,4-pyrimidinedione] | 218 to 220 °C | 0.015 µg/mL (≈ 0.0329 µM) | – | 8.85 µg/mL
CCc1c(Sc2cc(C)cc(C)c2)n(Cc2nc3ccccc3o2)c(=O)[nH]c1=O [Example 145, 1-(Benzoxazol-2-ylmethyl)-5-ethyl-6-(3,5-dimethylphenyl)thio-2,4-pyrimidinedione] | 104 to 106 °C | – | 3.04 µg/mL (≈ 7.46 µM) | >100.00 µg/mL
Cc1cc(C)cc(Sc2c(C(C)C)c(=O)[nH]c(=O)n2Cc2nc3ccccc3o2)c1 [Example 146, 1-(Benzoxazol-2-ylmethyl)-5-isopropyl-6-(3,5-dimethylphenyl)thio-2,4-pyrimidinedione] | 107 to 109 °C | – | 1.02 µg/mL (≈ 2.42 µM) | >100.00 µg/mL
CCc1c(Oc2cc(C)cc(C)c2)n(Cc2nc3ccccc3o2)c(=O)[nH]c1=O [Example 147, 1-(Benzoxazol-2-ylmethyl)-5-ethyl-6-(3,5-dimethylphenoxy)-2,4-pyrimidinedione] | 121 to 123 °C | – | 0.061 µg/mL (≈ 0.156 µM) | 40.20 µg/mL
Cc1cc(C)cc(Oc2c(C(C)C)c(=O)[nH]c(=O)n2Cc2nc3ccccc3o2)c1 [Example 148, 1-(Benzoxazol-2-ylmethyl)-5-isopropyl-6-(3,5-dimethylphenoxy)-2,4-pyrimidinedione] | 200 to 202 °C | – | 0.01 µg/mL (≈ 0.0247 µM) | 9.00 µg/mL

The next lines start with results.

melting point | EC50 (HIV; [2]) | Structure (SMILES) | EC50 (HIV; [1]) | CD50 (mock-infected MT-4 cells)
107 to 110 °C | > 10.6 µg/mL | CCc1c(Sc2cc(C)cc(C)c2)n(Cc2ccc3ccccc3n2)c(=O)[nH]c1=O [Example 131, 1-(Quinolin-2-ylmethyl)-5-ethyl-6-(3,5-dimethylphenyl)-thio-2,4-pyrimidinedione] | – | 10.60 µg/mL
181 to 183 °C | > 9.58 µg/mL | Cc1cc(C)cc(Sc2c(C(C)C)c(=O)[nH]c(=O)n2Cc2ccc3ccccc3n2)c1 [Example 132, 1-(Quinolin-2-ylmethyl)-5-isopropyl-6-(3,5-dimethylphenyl)thio-2,4-pyrimidinedione] | – | 9.60 µg/mL
220 to 222 °C | 0.06 µg/mL (≈ 0.149 µM) | CCc1c(Oc2cc(C)cc(C)c2)n(Cc2ccc3ccccc3n2)c(=O)[nH]c1=O [Example 133, 1-(Quinolin-2-ylmethyl)-5-ethyl-6-(3,5-dimethyl-phenoxy)-2,4-pyrimidinedione] | – | 11.70 µg/mL
246 to 248 °C | 0.004 µg/mL (≈ 0.00963 µM) | Cc1cc(C)cc(Oc2c(C(C)C)c(=O)[nH]c(=O)n2Cc2ccc3ccccc3n2)c1 [Example 134, 1-(Quinolin-2-ylmethyl)-5-isopropyl-6-(3,5-dimethyl-phenoxy)-2,4-pyrimidinedione] | – | 66.80 µg/mL
218 to 220 °C | 0.0089 µg/mL (≈ 0.0215 µM) | CCc1c(C(=O)c2cc(C)cc(C)c2)n(Cc2ccc3ccccc3n2)c(=O)[nH]c1=O [Example 135, 1-(Quinolin-2-ylmethyl)-5-ethyl-6-(3,5-dimethylbenzoyl)-2,4-pyrimidinedione] | – | 6.80 µg/mL
152 to 154 °C | 0.0097 µg/mL (≈ 0.0227 µM) | Cc1cc(C)cc(C(=O)c2c(C(C)C)c(=O)[nH]c(=O)n2Cc2ccc3ccccc3n2)c1 [Example 136, 1-(Quinolin-2-ylmethyl)-5-isopropyl-6-(3,5-dimethyl-benzoyl)-2,4-pyrimidinedione] | – | 8.70 µg/mL
248 to 249 °C | 0.11 µg/mL (≈ 0.281 µM) | CCc1c(Oc2cc(C)cc(C)c2)n(Cn2nnc3ccccc32)c(=O)[nH]c1=O [Example 141, 1-(1H-benzotriazol-1-ylmethyl)-5-ethyl-6-(3,5-dimethylphenoxy)-2,4-pyrimidinedione] | – | 27.60 µg/mL
278 to 279 °C | 0.044 µg/mL (≈ 0.109 µM) | Cc1cc(C)cc(Oc2c(C(C)C)c(=O)[nH]c(=O)n2Cn2nnc3ccccc32)c1 [Example 142, 1-(1H-benzotriazol-1-ylmethyl)-5-isopropyl-6-(3,5-dimethylphenoxy)-2,4-pyrimidinedione] | – | >100.00 µg/mL
226 to 229 °C | 0.026 µg/mL (≈ 0.0644 µM) | CCc1c(C(=O)c2cc(C)cc(C)c2)n(Cn2nnc3ccccc32)c(=O)[nH]c1=O [Example 143, 1-(1H-benzotriazol-1-ylmethyl)-5-ethyl-6-(3,5-dimethylbenzoyl)-2,4-pyrimidinedione] | – | 9.76 µg/mL
246 to 247 °C | 0.03 µg/mL (≈ 0.0719 µM) | Cc1cc(C)cc(C(=O)c2c(C(C)C)c(=O)[nH]c(=O)n2Cn2nnc3ccccc32)c1 [Example 144, 1-(1H-benzotriazol-1-ylmethyl)-5-isopropyl-6-(3,5-dimethyl-benzoyl)-2,4-pyrimidinedione] | – | 8.89 µg/mL
